Patent US5614520A, “2-arylthiazole derivatives and pharmaceutical composition thereof” (priority 1990, dated 1997)

Tests used:
[1] = target: T1, xanthine oxidase (Bos taurus, UniProt P80457); test: In vitro determination of xanthine oxidase (XOD) inhibition; type: biochemical; details: xanthine oxidase from butter milk, xanthine substrate, pH 7.4, 37° C.
T1 construct: purchased Sigma Chemical Company; host or cells: butter milk
Method: (1) Preparation of test compounds:
Test compounds (compounds of Ex. No. listed in Table 1) were dissolved in dimethylsulfoxide and diluted with a 50 mM phosphate buffer to prepare aqueous solutions respectively having predetermined concentrations.
The inhibition rate was determined by the following equation: [formula]
The inhibition (%) was determined on each test compound prepared according to (1), and the IC50 value on the xanthine oxidase (XOD) inhibition was calculated from the value of inhibition.

[2] = system: interleukin 1 production; test: Interleukin 1 production inhibitory activity (LPS, abdominal exuded macrophage, ELISA); type: cell-based, BALB/c mouse; details: 10^-6 M, 1 μg/ml LPS, 24 hours, mouse macrophage
Method: 1 ml of a 5% oyster glycogen solution was intra-abdominally administered to a BALB/c mouse (male, 8 weeks in age), and 4 days after the administration, the infiltrated abdominal exuded cells were adhered to a plastic dish for 2 hours, and 1 μg/ml of LPS was allowed to act on macrophage (1×10^6 cells). Interleukin 1 extricated on the supernatant in 24 hours was measured by an ELISA technique. The test compound (compounds of Ex. No. described in Table 3) was prepared so as to have a concentration of 10^-6 M, and the interleukin 1 production inhibitory activity was, expressed in terms of the percentage inhibition based on the amount of production of the control.

[3] = system: serum uric acid; test: Determination of oral administration: lowering of serum uric acid in mice; type: in vivo, ICR male mice; details: ICR male mice, oral, 1 mg/kg, 2 hours after administration, serum; for inhibition in vivo at 1 mg/kg: Mus musculus, read-out: Activity of lowering uric acid
Method: Test compounds suspended in a 5% gum arabic solution was forcibly administered by oral administration (compounds of Ex. No. of Table 2, dose: 1 mg/kg) to ICR male mice (age: about 7 weeks) (one group: 6 mice) by means of an oral probe. 2 hours after the administration, thoracotomy was conducted under etherization to collect blood from the heart, and serum was removed by a conventional process. The serum uric acid was measured by a biochemical automatic analyzer (Flexigem; Electro-Nucleonics, Inc.) by using a uric acid measurement kit (UA reagent; International Reagent) to determine the percentage of the lowering of uric acid. [formula]

T1 sequence (P80457 whole entry): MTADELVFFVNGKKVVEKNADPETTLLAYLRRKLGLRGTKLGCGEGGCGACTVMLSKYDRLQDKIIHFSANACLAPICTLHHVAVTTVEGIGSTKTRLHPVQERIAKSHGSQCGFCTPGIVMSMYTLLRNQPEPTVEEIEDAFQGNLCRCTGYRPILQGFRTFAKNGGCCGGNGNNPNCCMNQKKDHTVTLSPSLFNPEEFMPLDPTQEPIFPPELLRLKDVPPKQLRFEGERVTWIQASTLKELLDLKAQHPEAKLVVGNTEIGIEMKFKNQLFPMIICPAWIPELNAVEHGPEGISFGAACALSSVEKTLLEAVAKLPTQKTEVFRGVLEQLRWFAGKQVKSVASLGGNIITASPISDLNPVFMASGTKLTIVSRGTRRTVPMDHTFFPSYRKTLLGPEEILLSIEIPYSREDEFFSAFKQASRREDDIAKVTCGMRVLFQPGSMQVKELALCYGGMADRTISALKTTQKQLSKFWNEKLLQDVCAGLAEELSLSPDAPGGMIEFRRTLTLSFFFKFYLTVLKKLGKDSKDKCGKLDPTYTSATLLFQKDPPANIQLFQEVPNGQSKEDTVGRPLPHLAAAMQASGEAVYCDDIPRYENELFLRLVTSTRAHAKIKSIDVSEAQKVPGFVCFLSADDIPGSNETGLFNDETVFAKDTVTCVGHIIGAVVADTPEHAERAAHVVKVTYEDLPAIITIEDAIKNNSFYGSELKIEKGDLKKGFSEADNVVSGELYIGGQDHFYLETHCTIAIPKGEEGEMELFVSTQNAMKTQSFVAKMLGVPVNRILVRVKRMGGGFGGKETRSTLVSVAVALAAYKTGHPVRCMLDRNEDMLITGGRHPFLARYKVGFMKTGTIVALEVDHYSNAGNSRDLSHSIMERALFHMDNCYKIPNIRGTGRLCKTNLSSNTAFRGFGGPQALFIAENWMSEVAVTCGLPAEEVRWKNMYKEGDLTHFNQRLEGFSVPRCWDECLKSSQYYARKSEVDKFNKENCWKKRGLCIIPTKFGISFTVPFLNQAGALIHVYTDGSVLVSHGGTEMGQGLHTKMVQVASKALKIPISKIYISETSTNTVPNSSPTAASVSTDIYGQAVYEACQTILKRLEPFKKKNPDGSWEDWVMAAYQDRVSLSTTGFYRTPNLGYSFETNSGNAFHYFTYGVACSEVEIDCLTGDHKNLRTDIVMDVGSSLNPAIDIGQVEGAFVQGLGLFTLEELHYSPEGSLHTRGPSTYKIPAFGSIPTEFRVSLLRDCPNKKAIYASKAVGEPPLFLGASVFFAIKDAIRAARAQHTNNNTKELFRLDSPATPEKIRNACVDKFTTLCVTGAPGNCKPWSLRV

Row | Compound | IC50 [1] | inhibition at 1 µM [2] | inhibition in vivo at 1 mg/kg [3] | Activity of lowering uric acid [3]
1 | Cc1nc(-c2cc(Cl)cc(Cl)c2)sc1C(=O)O [Example 27, 2-(3,5-Dichlorophenyl)-4-methyl-5-thiazolecarboxylic acid] | 10 nM | 43% |  | 
2 | CC(C)Oc1ccc(-c2nc(O)c(C(=O)O)s2)cc1 [Example 22, 4-Hydroxy-2-(4-isopropoxyphenyl)-5-thiazolecarboxylic acid] | 45 nM | 45% |  | 
3 | Cc1nc(-c2ccc(C(=O)O)cc2)sc1C(=O)O [Example 14, 2-(4-Carboxyphenyl)-4-methyl-5-thiazolecarboxylic acid] | 3.2 nM | 35% |  | 
4 | Cc1nc(-c2ccc(OCCCCC(=O)O)cc2)sc1C(=O)O [Example 12, 2-(4-(4-Carboxybutyloxy)phenyl)-4-methyl-5-thiazolecarboxylic acid] | 12 nM | 42% |  | 
5 | Cc1nc(-c2cc(Cl)c(O)c(Cl)c2)sc1C(=O)O [Example 28, 2-(3,5-Dichloro-4-hydroxyphenyl)-4-methyl-5-thiazolecarboxylic acid] | 26 nM | 52% |  | 
6 | Cc1nc(-c2ccc(OCC(=O)O)cc2)sc1C(=O)O [Example 11, 2-(4-Carboxymethyloxyphenyl)-4-methyl-5-thiazolecarboxylic acid] | 77 nM | 23% |  | 
7 | Cc1nc(-c2ccc(OCC3CCCCC3)cc2)sc1C(=O)O [Example 7, 2-(4-Cyclohexylmethyloxyphenyl)-4-methyl-5-thiazolecarboxylic acid] | 46 nM | 39% |  | 
8 | Cc1nc(-c2ccc(OCC(C)(C)C)c(Cl)c2)sc1C(=O)O [Example 54, 2-(3-Chloro-4-neopentyloxyphenYl)-4-methyl-5-thiazolecarboxylic acid] | 2.9 nM |  | 12% | 
9 | Cc1nc(-c2ccc(OCC(C)C)c(Cl)c2)sc1C(=O)O [Example 51, 2-(3-Chloro-4-isobutyloxyphenyl)-4-methyl-5-thiazolecarboxylic acid] | 2.1 nM |  | 78% | 
10 | Cc1nc(-c2ccc(N(C)C)cc2)sc1C(=O)O [Example 18, 2-(4-(N,N-dimethylamino)phenyl)-4-methyl-5-thiazolecarboxylic acid] | 43 nM |  | 22% | 
11 | Cc1nc(-c2ccc(OCCC(C)C)c(C#N)c2)sc1C(=O)O [Example 79, 2-(3-Cyano-4-isopentyloxyphenyl)-4-methyl-5-thiazolecarboxylic acid] | 2.2 nM |  | 89% | 
12 | Cc1nc(-c2ccc(Sc3ccc(Cl)cc3)c(Cl)c2)sc1C(=O)O [Example 61, 2-(3-Chloro-4-(4-chlorophenylthio)phenyl)-4-methyl-5-thiazolecarboxylic acid] | 2 nM |  | 32% | 
13 | Cc1nc(-c2ccc(OCC(C)C)c([N+](=O)[O-])c2)sc1C(=O)O [Example 34, 2-(4-Isobutyloxy-3-nitrophenyl)-4-methyl-5-thiazolecarboxylic acid] | 2.4 nM |  | 76% | 
14 | Cc1nc(-c2ccc(N3CCN(C)CC3)c([N+](=O)[O-])c2)sc1C(=O)O [Example 46, 4-methyl-2-(4-(4-methylpiperazinyl)-3-nitrophenyl)-5-thiazolecarboxylic acid] | 2.4 nM |  | 75% | 
15 | Cc1nc(-c2ccc(OCC(C)(C)C)c(C(F)(F)F)c2)sc1C(=O)O [Example 84, 4-Methyl-2-(4-neopentyloxy-3-trifluoromethylphenyl)-5-thiazolecarboxylic acid] | 2.9 nM |  | 80% | 
16 | CCC(CC)COc1ccc(-c2nc(C)c(C(=O)O)s2)cc1Cl [Example 53, 2-(3-Chloro-4-(2-ethylbutyloxy)phenyl)-4-methYl-5-thiazolecarboxylic acid] | 2.7 nM |  | 29% | 

More lines, in order of falling IC50 [1], values ahead:

Row | IC50 [1] | Compound | inhibition at 1 µM [2] | inhibition in vivo at 1 mg/kg [3] | Activity of lowering uric acid [3]
17 | 2 nM | CCC(CC)COc1ccc(-c2nc(C)c(C(=O)O)s2)cc1[N+](=O)[O-] [Example 42, 2-(4-(2-Ethylbutyloxy)-3-nitrophenyl)-4-methyl-5-thiazolecarboxylic acid] |  | 75% | 
18 | 1.9 nM | CCOCCOc1ccc(-c2nc(C)c(C(=O)O)s2)cc1C#N [Example 80, 2-(3-CYano-4-(2-ethoxyethyloxy)phenyl)-4-methyl-5-thiazolecarboxylic acid] |  | 87% | 
19 | 1.8 nM | 2-(4-morpholino-3-nitrophenyl)-4-methyl-5-thiazolecarboxylic acid [Example 38] |  |  | 91%
20 | 1.7 nM | Cc1nc(-c2ccc(N3CCOCC3)c(C#N)c2)sc1C(=O)O [Example 81, 2-(3-Cyano-4-morpholinophenyl)-4-methyl-5-thiazolecarboxylic acid] |  | 91% | 
21 | 1.6 nM | Cc1nc(-c2ccc(Sc3ccc(Cl)cc3)c(Br)c2)sc1C(=O)O [Example 65, 2-(3-Bromo-4-(4-chlorophenylthio)phenyl)-4-methyl-5-thiazolecarboxylic acid] |  | 42% | 
22 | 1.5 nM | Cc1nc(-c2cc(Cl)c(OCCC(C)C)c(Cl)c2)sc1C(=O)O [Example 71, 2-(3,5-Dichloro-4-isopentyloxyphenyl)-4-methyl-5-thiazolecarboxylic acid] |  | 50% | 
23 | 1.5 nM | Cc1nc(-c2cc(Cl)c(OCC(C)C)c(Cl)c2)sc1C(=O)O [Example 69, 2-(3,5-Dichloro-4-isobutyloxyphenyl)-4-methyl-5-thiazolecarboxylic acid] |  | 55% | 
24 | 1.5 nM | Cc1nc(-c2ccc(OCCN3CCOCC3)c(Cl)c2)sc1C(=O)O [Example 56, 2-(3-Chloro-4-(2-morpholinoethyloxy)phenyl)-4-methyl-5-thiazolecarboxylic acid] |  | 50% | 
25 | 1.2 nM | Cc1nc(-c2ccc(OCCN3CCCCC3)c(Cl)c2)sc1C(=O)O [Example 57, 2-(3-Chloro-4-(2-piperidinoethyloxy)phenyl)-4-methyl-5-thiazolecarboxylic acid] |  | 15% | 
26 | 0.94 nM | Cc1nc(-c2ccc(OCC(C)C)c(Br)c2)sc1C(=O)O [Example 63, 2-(3-bromo-4-isobutyloxyphenyl)-4-methyl-5-thiazolecarboxylic acid] |  | 35% | 
27 | 0.8 nM | CCC(CC)COc1c(Cl)cc(-c2nc(C)c(C(=O)O)s2)cc1Cl [Example 70, 2-(3,5-Dichloro-4-(2-ethylbutyloxy)phenyl)-4-methyl-5-thiazolecarboxylic acid] |  | 15% | 
28 | 0.63 nM | Cc1nc(-c2ccc(N3CCCCC3)c(Br)c2)sc1C(=O)O [Example 66, 2-(3-Bromo-4-piperidinophenyl)-4-methyl-5-thiazolecarboxylic acid] |  | 65% | 
29 | 0.57 nM | Cc1nc(-c2ccc(OC(C)C)c([N+](=O)[O-])c2)sc1C(=O)O [Example 31, 2-(4-isopropoxy-3-nitrophenyl)-4-methyl-5-thiazolecarboxylic acid] |  | 90% | 
30 | 0.51 nM | Cc1nc(-c2ccc(OCC(C)C)c(C=O)c2)sc1C(=O)O [Example 86, 2-(3-formyl-4-isobutyloxyphenyl)-4-methyl-5-thiazolecarboxylic acid] |  | 72% | 
31 | 0.38 nM | Cc1nc(-c2ccc(N3CCOCC3)c(Cl)c2)sc1C(=O)O [Example 59, 2-(3-chloro-4-morpholinophenyl)-4-methyl-5-thiazolecarboxylic acid] |  | 62% | 
32 | 0.36 nM | CCOc1ccc(-c2nc(C)c(C(=O)O)s2)cc1[N+](=O)[O-] [Example 33, 2-(4-Ethoxy-3-nitrophenyl)-4-methyl-5-thiazolecarboxylic acid] |  | 71% | 
33 | 0.32 nM | CCCCCCOc1ccc(-c2nc(C)c(C(=O)O)s2)cc1[N+](=O)[O-] [Example 41, 2-(4-n-Hexyloxy-3-nitrophenyl)-4-methyl-5-thiazolecarboxylic acid] |  | 92% | 
34 | 0.3 nM | Cc1nc(-c2ccc(SC(C)C)c([N+](=O)[O-])c2)sc1C(=O)O [Example 35, 2-(4-isopropylthio-3-nitrophenyl)-4-methyl-5-thiazolecarboxylic acid] |  | 57% | 
35 | 0.18 nM | Cc1nc(-c2ccc(OCC3CCCCC3)c([N+](=O)[O-])c2)sc1C(=O)O [Example 32, 2-(4-Cyclohexylmethyloxy-3-nitrophenyl)-4-methyl-5-thiazolecarboxylic acid] |  | 48% | 
